# Data as given in article PMC7536268, “Increased Antimicrobial Activity of Colistin in Combination With Gamithromycin Against Pasteurella multocida in a Neutropenic Murine Lung Infection Model” (Frontiers in Microbiology, 2020).
# Where a SMILES comes first, the peptide text is derived from it. Bridges are numbered along the chain shown (N, C = ends). [ ]: non-standard residue; d: D form. The star is where a group is joined. X1 = CC[C@H](C)CCCCC(=O)*; Dab = NCC[C@H](N)C(=O)O
# Columns and labels:
# [1] = set-up: method as in Soon-Ee et al., 2015; conditions: ref Soon-Ee et al., 2015; cited from earlier work
# [2] = test system: Pasteurella multocida (D18, T5, and WJ11); assay: In vitro time-kill assays; format: cell-based; conditions: colistin alone 0.25-1 mg/L, 24 h, all strains (D18, T5, WJ11), inoculum ~5 × 10^6 CFU/mL
# Experimental: In vitro time-kill assays were used to evaluate the effects of colistin alone and in combination with gamithromycin over 24 h. Three isolates of P. multocida (D18, T5, and WJ11) were tested. A P. multocida inoculum at ∼5 × 10^6 CFU/mL was treated with colistin alone at 0.25, 0.5, and 1 mg/L; gamithromycin alone at 0.125, 0.25, and 0.5 mg/L; and with colistin in combination with gamithromycin. At 0, 1, 2, 4, 6, 8, 12, and 24 h after incubation, 100-μL samples were taken from each tube for colony counting. A growth control without drug administration was included in all tests.
# [3] = cattle, SC 6 mg/kg; ref Steeve et al., 2011; cited from earlier work
# P. multocida = test system: P. multocida; set-up: method as in Benoit et al., 2011; conditions: P. multocida with erm(E); ref Benoit et al., 2011; cited from earlier work
# Source text: Bovine respiratory disease (BRD) associated with Mannheimia haemolytica, P. multocida, and Histophilus somni is one of the most economically important diseases that occur in feedlots, and the global losses are estimated at over $3 billion per year ([Watts and Sweeney, 2010]).
# [4] = In vitro plasma protein binding, equilibrium dialysis; format: in vitro ADME; conditions: 72 h at 4°C
# Experimental: In vitro plasma protein-binding experiments for gamithromycin were conducted by adopting an equilibrium dialysis method for 72 h at 4°C. The corresponding unbound plasma PK parameters were obtained and used for the integration of PK and PD data.
# [5] = test system: Pasteurella multocida strains; assay: MIC by broth microdilution (CLSI); format: cell-based; conditions: drug alone, broth microdilution, Mueller-Hinton broth, triplicate
# Experimental: The susceptibility of the selected P. multocida isolates and the quality control isolate (ATCC 25922) to colistin, gamithromycin, cefquinome, enrofloxacin, tilmicosin, tylosin tartrate, and florfenicol alone was determined using the microdilution method in broth (conducted in triplicate) according to the guiding principles of the CLSI. Based on the action mechanism of each drug, the antimicrobial activity of colistin or cefquinome (drug A) in combination with gamithromycin, enrofloxacin, tilmicosin, tylosin tartrate, or florfenicol (drug B) was determined with the checkerboard method, according to the minimal inhibitory concentration (MIC) of each drug. Briefly, 50 μL of MH II broth was added to each well, and 50 μL of the indicated concentration of colistin or cefquinome was added into the first well of each line. This was followed by multiproportion dilution. Next, 50-μL samples of different concentrations of gamithromycin or the other drugs mentioned above were added to the dilution medium, and a 100 μL inoculum with a cell density of ∼1 × 10^6 colony-forming units (CFU)/mL was added to each well. The plates were then incubated at 37°C for 24 h. According to the EUCAST definitive document E.Def 1.2 ([Mccullough, 2010]), the fractional inhibitory concentration (FIC) index for combined administrations was defined as the sum of the FIC of drug A and the FIC of drug B, where FIC is the MIC of the drug combined with other drugs, divided by the MIC of the drug alone.
# [6] = test system: Pasteurella multocida strains (D18, T5, and WJ11); assay: PK/PD relationship analysis (inhibitory Emax model, plasma AUC/MIC, target doses); format: in vivo; conditions: gamithromycin monotherapy; for Gamithromycin AUC/MIC required to reach 1-log10 kill / Gamithromycin AUC/MIC required to reach stasis: plasma AUC
# Experimental: The relationship between the in vivo antimicrobial activity of gamithromycin alone or in combination with colistin and the ratio of plasma PK parameters to the MIC of gamithromycin was assessed. An inhibitory effect Emax model from the Phoenix WinNonlin identification module was used for analysis based on the equation: E = Emax − (Emax−E0) × Ce/(Ce + EC50), where E is the antimicrobial effect (i.e., the change in bacterial burden in CFU per lung), Emax is the change in log10 CFU/lung for control groups, […], Ce is the PK/PD index under analysis, and EC50 is the Ce value at 50% of E0.
# Integration of PK and PD data is important for clinical drug administration ([Toutain et al., 2002]). Herein, PK values in plasma were used to calculate the PK/PD index, which was integrated with changes in bacteria log10 CFU/lung. Antimicrobials that achieve significant PAE values are generally described as concentration-dependent ([Jacobs, 2004]).
# [7] = strain D18, lungs of mice, n = 4
# [8] = strain T5, lungs of mice, n = 4
# [9] = strain WJ11, lungs of mice, n = 4
compound,measurement,setting,value
CC[C@H](C)CCCCC(=O)N[C@@H](CCN)C(=O)N[C@H](C(=O)N[C@@H](CCN)C(=O)N[C@H]1CCNC(=O)[C@H]([C@@H](C)O)NC(=O)[C@H](CCN)NC(=O)[C@H](CCN)NC(=O)[C@H](CC(C)C)NC(=O)[C@@H](CC(C)C)NC(=O)[C@H](CCN)NC1=O)[C@@H](C)O [Colistin] (X1-[Dab]T[Dab][Dab][Dab][dL]L[Dab][Dab]T; lactam 4-C),unbound extent in plasma,[1],8.4%
same,time-kill outcome,[2],incapable of controlling bacterial growth
CCCN1C[C@H](C)[C@@H](O)[C@](C)(O)[C@@H](CC)OC(=O)[C@H](C)[C@@H](O[C@H]2C[C@@](C)(OC)[C@@H](O)[C@H](C)O2)[C@H](C)[C@@H](O[C@@H]2O[C@H](C)C[C@H](N(C)C)[C@H]2O)[C@](C)(O)C[C@H]1C [Gamithromycin],AUClast,[3],7.82 mg⋅h/L
same,MIC,P. multocida,≥ 512 µg/mL
same,plasma protein binding extent,[4],13.83%
same,MIC,[5]; strain CVCC 444,0.5 µg/mL
same,MIC,[5]; strain D18,0.5 µg/mL
same,MIC,[5]; strain PmP2 (pig),0.5 µg/mL
same,MIC,[5]; strain PmP17 (pig),0.5 µg/mL
same,MIC,[5]; strain T5,0.5 µg/mL
same,MIC,[5]; strain WJ11,0.5 µg/mL
same,MIC,[5]; strain WN71,0.5 µg/mL
same,MIC,[5]; strain WW81,0.5 µg/mL
same,MIC,[5]; strain XX12,0.5 µg/mL
same,Gamithromycin dose required to reach 1-log10 kill,"[6]; Mean ± SD of D18, T5, WJ11, SD",67.11 ± 6.01 mg/kg
same,Gamithromycin dose required to reach stasis,"[6]; Mean ± SD of D18, T5, WJ11, SD",18.43 ± 3.10 mg/kg
same,Gamithromycin dose required to reach 1-log10 kill,[6]; [7],65.32 mg/kg
same,Gamithromycin dose required to reach stasis,[6]; [7],17.99 mg/kg
same,Gamithromycin AUC/MIC required to reach 1-log10 kill,"[6]; strain D18, n = 4",36.74
same,Gamithromycin AUC/MIC required to reach stasis,"[6]; strain D18, n = 4",10.33
same,Gamithromycin dose required to reach 1-log10 kill,[6]; [8],73.80 mg/kg
same,Gamithromycin dose required to reach stasis,[6]; [8],21.73 mg/kg
same,Gamithromycin AUC/MIC required to reach 1-log10 kill,"[6]; strain T5, n = 4",41.51
same,Gamithromycin AUC/MIC required to reach stasis,"[6]; strain T5, n = 4",12.47
same,Gamithromycin dose required to reach 1-log10 kill,[6]; [9],62.19 mg/kg
same,Gamithromycin dose required to reach stasis,[6]; [9],15.58 mg/kg
same,Gamithromycin AUC/MIC required to reach 1-log10 kill,"[6]; strain WJ11, n = 4",34.98
same,Gamithromycin AUC/MIC required to reach stasis,"[6]; strain WJ11, n = 4",8.11
